Experimental findings from BindingDB's records for doi:10.1016/1074-5521(95)90264-3 (Smithkline Beecham Pharmaceuticals, 1995) are described below.

The assay has as its target Peptidyl-prolyl cis-trans isomerase FKBP1A (Homo sapiens, UniProt P62942). Description: FKBP12 Assay. An excerpt:
FKBP12 assay using rapamycin analogs.

Some results are limits rather than exact numbers.

Chain of Peptidyl-prolyl cis-trans isomerase FKBP1A (P62942 whole entry): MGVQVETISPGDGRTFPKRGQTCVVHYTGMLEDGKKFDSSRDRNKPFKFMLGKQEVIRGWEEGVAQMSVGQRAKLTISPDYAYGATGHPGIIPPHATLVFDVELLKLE

The term EC50 denotes the concentration giving half of the maximal effect. Higher therefore signals lower potency in that assay. Usually Ki stands for the dissociation constant of the complex between target and ligand, obtained from inhibition or displacement. Low readings indicate tighter binding, high ones weaker binding. `CO[C@@H]1C[C@H](C[C@@H](C)[C@@H]2CC(=O)[C@H](C)/C=C(\C)[C@@H](O)[C@@H](OC)C(=O)[C@H](C)C[C@H](C)/C=C/C=C/C=C(\C)[C@H](SC)C[C@@H]3CC[C@@H](C)[C@@](O)(O3)C(=O)C(=O)N3CCCC[C@H]3C(=O)O2)CC[C@H]1O` [Rapamycin C-7, analog 6a] had a concentration for a half-maximal effect (EC50) of 4 nM and an inhibition constant (Ki) of 1 nM.

The molecule `CCO[C@@H]1C[C@@H]2CC[C@@H](C)[C@@](O)(O2)C(=O)C(=O)N2CCCC[C@H]2C(=O)O[C@H]([C@H](C)C[C@@H]2CC[C@@H](O)[C@H](OC)C2)CC(=O)[C@H](C)/C=C(\C)[C@@H](O)[C@@H](OC)C(=O)[C@H](C)C[C@H](C)/C=C/C=C/C=C/1C` [Rapamycin C-7, analog 5a] returned an EC50 of 10 nM and a Ki of 3.5 nM.

As for `CO[C@@H]1C[C@H](C[C@@H](C)[C@@H]2CC(=O)[C@H](C)/C=C(\C)[C@@H](O)[C@@H](OC)C(=O)[C@H](C)C[C@H](C)/C=C/C=C/C=C(\C)[C@H](c3ccc[nH]3)C[C@@H]3CC[C@@H](C)[C@@](O)(O3)C(=O)C(=O)N3CCCC[C@H]3C(=O)O2)CC[C@H]1O` [Rapamycin C-7, analog 11a], the EC50 came out at 11 nM and affinity was put at a Ki of 10 nM.

On to `COC(=O)N[C@@H]1C[C@@H]2CC[C@@H](C)[C@@](O)(O2)C(=O)C(=O)N2CCCC[C@H]2C(=O)O[C@H]([C@H](C)C[C@@H]2CC[C@@H](O)[C@H](OC)C2)CC(=O)[C@H](C)/C=C(\C)[C@@H](O)[C@@H](OC)C(=O)[C@H](C)C[C@H](C)/C=C/C=C/C=C/1C` [Rapamycin C-7, analog 7a], for which the half-maximal effective concentration (EC50) is over 10000 nM and affinity was put at a Ki of 4.5 nM.

`CO[C@@H]1C[C@H](C[C@@H](C)[C@@H]2CC(=O)[C@H](C)/C=C(\C)[C@@H](O)[C@@H](OC)C(=O)[C@H](C)C[C@H](C)/C=C/C=C/C=C(\C)[C@H](OCc3ccccc3)C[C@@H]3CC[C@@H](C)[C@@](O)(O3)C(=O)C(=O)N3CCCC[C@H]3C(=O)O2)CC[C@H]1O` [Rapamycin C-7, analog 14a] registered an EC50 of 6 nM and a Ki of 5 nM.

With `COc1cc(OC)c([C@H]2C[C@@H]3CC[C@@H](C)[C@@](O)(O3)C(=O)C(=O)N3CCCC[C@H]3C(=O)O[C@H]([C@H](C)C[C@@H]3CC[C@@H](O)[C@H](OC)C3)CC(=O)[C@H](C)/C=C(\C)[C@@H](O)[C@@H](OC)C(=O)[C@H](C)C[C@H](C)/C=C/C=C/C=C/2C)c(OC)c1` [Rapamycin C-7, analog 9], the EC50 is over 1000 nM and affinity was put at a Ki of 7 nM.

Turning to `COc1ccc([C@H]2C[C@@H]3CC[C@@H](C)[C@@](O)(O3)C(=O)C(=O)N3CCCC[C@H]3C(=O)O[C@H]([C@H](C)C[C@@H]3CC[C@@H](O)[C@H](OC)C3)CC(=O)[C@H](C)/C=C(\C)[C@@H](O)[C@@H](OC)C(=O)[C@H](C)C[C@H](C)/C=C/C=C/C=C/2C)c(OC)c1` [Rapamycin C-7, analog 8b], the half-maximal effective concentration (EC50) was over 1000 nM and the Ki stood at 38 nM.

In turn, `CCO[C@H]1C[C@@H]2CC[C@@H](C)[C@@](O)(O2)C(=O)C(=O)N2CCCC[C@H]2C(=O)O[C@H]([C@H](C)C[C@@H]2CC[C@@H](O)[C@H](OC)C2)CC(=O)[C@H](C)/C=C(\C)[C@@H](O)[C@@H](OC)C(=O)[C@H](C)C[C@H](C)/C=C/C=C/C=C/1C` [Rapamycin C-7, analog 5b] yielded an EC50 of 200 nM and a Ki of 4 nM.

Consider `CO[C@@H]1C[C@H](C[C@@H](C)[C@@H]2CC(=O)[C@H](C)/C=C(\C)[C@@H](O)[C@@H](OC)C(=O)[C@H](C)C[C@H](C)/C=C/C=C/C=C(\C)CC[C@@H]3CC[C@@H](C)[C@@](O)(O3)C(=O)C(=O)N3CCCC[C@H]3C(=O)O2)CC[C@H]1O` [Rapamycin C-7, analog 12], for which a half-maximal effect (EC50) was put at 2 nM and the inhibitory constant (Ki) amounted to 1 nM.

On to `CO[C@@H]1C[C@H](C[C@@H](C)[C@@H]2CC(=O)[C@H](C)/C=C(\C)[C@@H](O)[C@@H](OC)C(=O)[C@H](C)C[C@H](C)/C=C/C=C/C=C(\C)[C@@H](c3ccco3)C[C@@H]3CC[C@@H](C)[C@@](O)(O3)C(=O)C(=O)N3CCCC[C@H]3C(=O)O2)CC[C@H]1O` [Rapamycin C-7, analog 10b], for which the EC50 worked out at 20 nM and the affinity, expressed as Ki, was 6 nM.

Regarding `CO[C@@H]1C[C@H](C[C@@H](C)[C@@H]2CC(=O)[C@H](C)/C=C(\C)[C@@H](O)[C@@H](OC)C(=O)[C@H](C)C[C@H](C)/C=C/C=C/C=C(\C)[C@H](c3ccco3)C[C@@H]3CC[C@@H](C)[C@@](O)(O3)C(=O)C(=O)N3CCCC[C@H]3C(=O)O2)CC[C@H]1O` [Rapamycin C-7, analog 10a], a half-maximal effect (EC50) was put at 20 nM and the affinity corresponds to a Ki of 3 nM.

With `CO[C@@H]1C[C@H](C[C@@H](C)[C@@H]2CC(=O)[C@H](C)/C=C(\C)[C@@H](O)[C@@H](OC)C(=O)[C@H](C)C[C@H](C)/C=C/C=C/C=C(\C)[C@@H](SC)C[C@@H]3CC[C@@H](C)[C@@](O)(O3)C(=O)C(=O)N3CCCC[C@H]3C(=O)O2)CC[C@H]1O` [Rapamycin C-7, analog 6b], the EC50 stood at 4 nM and the affinity, expressed as Ki, was 1 nM.

With `CO[C@@H]1C[C@H](C[C@@H](C)[C@@H]2CC(=O)[C@H](C)/C=C(\C)[C@@H](O)[C@@H](OC)C(=O)[C@H](C)C[C@H](C)C=CC=CC=C(C)C(=O)C[C@@H]3CC[C@@H](C)[C@@](O)(O3)C(=O)C(=O)N3CCCC[C@H]3C(=O)O2)CC[C@H]1O` [Rapamycin C-7, analog 13], the midpoint of the response, the EC50, lay at 300 nM and affinity was put at a Ki of 29 nM.

In the case of `CO[C@@H]1C[C@H](C[C@@H](C)[C@@H]2CC(=O)[C@H](C)/C=C(\C)[C@@H](O)[C@@H](OC)C(=O)[C@H](C)C[C@H](C)/C=C/C=C/C=C(\C)[C@H](OCc3ccc(N=[N+]=[N-])c(I)c3)C[C@@H]3CC[C@@H](C)[C@@](O)(O3)C(=O)C(=O)N3CCCC[C@H]3C(=O)O2)CC[C@H]1O` [Rapamycin C-7, analog 17a], the midpoint of the response, the EC50, lay at 90 nM and the Ki is 30 nM.

On to `CO[C@@H]1C[C@H](C[C@@H](C)[C@@H]2CC(=O)[C@H](C)/C=C(\C)[C@@H](O)[C@@H](OC)C(=O)[C@H](C)C[C@H](C)/C=C/C=C/C=C(\C)[C@H](OCc3cccc([N+](=O)[O-])c3)C[C@@H]3CC[C@@H](C)[C@@](O)(O3)C(=O)C(=O)N3CCCC[C@H]3C(=O)O2)CC[C@H]1O` [Rapamycin C-7, analog 15a], for which the response was half-maximal at 50 nM (EC50) and the inhibition constant Ki was determined as 7 nM.

The molecule `COC(=O)N[C@H]1C[C@@H]2CC[C@@H](C)[C@@](O)(O2)C(=O)C(=O)N2CCCC[C@H]2C(=O)O[C@H]([C@H](C)C[C@@H]2CC[C@@H](O)[C@H](OC)C2)CC(=O)[C@H](C)/C=C(\C)[C@@H](O)[C@@H](OC)C(=O)[C@H](C)C[C@H](C)/C=C/C=C/C=C/1C` [Rapamycin C-7, analog 7b] came in with an EC50 of 2500 nM and a Ki of 3.7 nM.

The molecule `COc1ccc([C@@H]2C[C@@H]3CC[C@@H](C)[C@@](O)(O3)C(=O)C(=O)N3CCCC[C@H]3C(=O)O[C@H]([C@H](C)C[C@@H]3CC[C@@H](O)[C@H](OC)C3)CC(=O)[C@H](C)/C=C(\C)[C@@H](O)[C@@H](OC)C(=O)[C@H](C)C[C@H](C)/C=C/C=C/C=C/2C)c(OC)c1` [Rapamycin C-7, analog 8a] registered an EC50 of 1000 nM and a Ki of 9 nM.

On to `CO[C@@H]1C[C@H](C[C@@H](C)[C@@H]2CC(=O)[C@H](C)/C=C(\C)[C@@H](O)[C@@H](OC)C(=O)[C@H](C)C[C@H](C)/C=C/C=C/C=C(\C)[C@H](OCc3ccc(Cl)cc3)C[C@@H]3CC[C@@H](C)[C@@](O)(O3)C(=O)C(=O)N3CCCC[C@H]3C(=O)O2)CC[C@H]1O` [Rapamycin C-7, analog 16a], for which the EC50 turned out to be 45 nM and the inhibitory constant (Ki) stood at 1 nM.

As for `CO[C@@H]1C[C@H](C[C@@H](C)[C@@H]2CC(=O)[C@H](C)/C=C(\C)[C@@H](O)[C@@H](OC)C(=O)[C@H](C)C[C@H](C)/C=C/C=C/C=C(\C)[C@@H](c3ccc[nH]3)C[C@@H]3CC[C@@H](C)[C@@](O)(O3)C(=O)C(=O)N3CCCC[C@H]3C(=O)O2)CC[C@H]1O` [Rapamycin C-7, analog 11b], the EC50 stood at 70 nM and the Ki turned out to be 1.5 nM.
